Assay results from ChEMBL document CHEMBL1135014, “Synthesis, radiolabeling and preliminary biological evaluation of radiolabeled 5-methyl-6-nitroquipazine, a potential radioligand for the serotonin transporter” (Bioorg Med Chem Lett, 2002).

Experiments:
[1] = target: Sodium-dependent serotonin transporter (Rattus norvegicus) (UniProt P31652); test: Enzyme kinetic constant, Bmax was evaluated against Serotonin transporter
[2] = target: Sodium-dependent serotonin transporter (Rattus norvegicus, UniProt P31652); test: Binding affinity of the radio labeled [3H]5-Methyl-6-nitroquipazine compound against Serotonin transporter in rat frontal cortex homogenates; format: tissue-based
Sodium-dependent serotonin transporter, sequence (P31652 whole entry): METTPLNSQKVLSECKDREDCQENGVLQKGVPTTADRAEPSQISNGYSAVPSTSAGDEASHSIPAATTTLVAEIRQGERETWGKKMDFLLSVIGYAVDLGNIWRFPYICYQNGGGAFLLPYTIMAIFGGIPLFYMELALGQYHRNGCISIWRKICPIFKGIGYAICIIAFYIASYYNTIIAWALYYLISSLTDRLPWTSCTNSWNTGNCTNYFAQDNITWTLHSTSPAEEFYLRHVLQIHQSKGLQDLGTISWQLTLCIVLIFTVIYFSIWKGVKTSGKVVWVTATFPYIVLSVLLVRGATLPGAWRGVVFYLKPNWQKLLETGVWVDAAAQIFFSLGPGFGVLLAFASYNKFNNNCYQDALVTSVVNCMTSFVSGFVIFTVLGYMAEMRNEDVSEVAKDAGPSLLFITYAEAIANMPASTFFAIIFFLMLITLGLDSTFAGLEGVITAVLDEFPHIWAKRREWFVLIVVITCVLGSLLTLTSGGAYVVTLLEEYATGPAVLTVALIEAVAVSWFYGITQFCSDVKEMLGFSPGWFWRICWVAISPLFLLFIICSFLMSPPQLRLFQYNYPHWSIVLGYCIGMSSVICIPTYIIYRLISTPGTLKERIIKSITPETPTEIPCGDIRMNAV

Sodium-dependent serotonin transporter (Rattus norvegicus), sequence (P31652 whole entry): as above

| SMILES | Bmax [1] [fmol/mg] | Kd [2] [nM] |
| --- | --- | --- |
| Cc1c([N+](=O)[O-])ccc2nc(N3CCNCC3)ccc12 | 1530 | 0.051 |
| O=[N+]([O-])c1ccc2nc(N3CCNCC3)ccc2c1 [6-NITROQUIPAZINE] | 1530 | 0.051 |
